Laboratory results reported in PMC9814779, “A triple farnesoid X receptor and peroxisome proliferator-activated receptor α/δ activator reverses hepatic fibrosis in diet-induced NASH in mice” (Communications Chemistry, 2020).
Where two headings read alike, the source gives them in different places.

Tests used:
Type in all cases: cell-based
Set-up in all cases: Emax: dose or concentration left out as unconfirmed
[1] = molecular target: T1, human FXR:retinoid X receptor (RXR) heterodimer (Homo sapiens, UniProt Q96RI1); assay: Full-length FXR reporter gene assay (BSEP response element) in HeLa cells; settings: for Emax: read-out: max. rel. act. FXR
T1 construct: pcDNA3-hFXR[32] and pSG5-hRXR[33] served for receptor overexpression in the full-length FXR assay; expressed in transfected cells; host or cells: HeLa
T1 sequence (P19793 whole entry): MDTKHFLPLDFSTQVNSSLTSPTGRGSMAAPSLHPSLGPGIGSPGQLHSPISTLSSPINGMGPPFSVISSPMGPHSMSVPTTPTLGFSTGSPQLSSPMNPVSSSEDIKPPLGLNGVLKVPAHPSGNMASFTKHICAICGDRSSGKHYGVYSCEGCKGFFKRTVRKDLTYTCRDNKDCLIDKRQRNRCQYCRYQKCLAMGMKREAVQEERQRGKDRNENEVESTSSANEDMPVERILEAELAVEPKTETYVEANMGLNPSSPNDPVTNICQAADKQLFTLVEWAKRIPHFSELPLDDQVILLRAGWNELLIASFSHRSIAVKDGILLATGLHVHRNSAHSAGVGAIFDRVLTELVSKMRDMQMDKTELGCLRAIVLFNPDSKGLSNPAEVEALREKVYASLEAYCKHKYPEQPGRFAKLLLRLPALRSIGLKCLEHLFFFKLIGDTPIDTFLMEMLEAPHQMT
T1 sequence (Q96RI1 whole entry): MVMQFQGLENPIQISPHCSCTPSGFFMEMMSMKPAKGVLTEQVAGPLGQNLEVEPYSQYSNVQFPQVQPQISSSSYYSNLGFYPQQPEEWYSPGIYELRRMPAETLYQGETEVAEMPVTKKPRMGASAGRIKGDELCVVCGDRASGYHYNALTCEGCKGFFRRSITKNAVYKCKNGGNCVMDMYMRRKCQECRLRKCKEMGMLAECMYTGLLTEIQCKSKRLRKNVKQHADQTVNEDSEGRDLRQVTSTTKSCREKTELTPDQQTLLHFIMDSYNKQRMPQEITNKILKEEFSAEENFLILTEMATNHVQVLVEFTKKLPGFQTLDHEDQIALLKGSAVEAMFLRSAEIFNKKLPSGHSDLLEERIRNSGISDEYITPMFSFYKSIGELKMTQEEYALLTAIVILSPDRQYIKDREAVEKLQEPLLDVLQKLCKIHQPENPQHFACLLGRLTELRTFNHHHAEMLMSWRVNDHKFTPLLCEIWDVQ

[2] = molecular target: T2, human PPARα ligand-binding domain (Gal4 chimera) (Homo sapiens, UniProt Q07869); assay: Gal4 hybrid reporter gene assay, PPARα; settings: for EC50: EC50 [μM] PPARα; for Emax: read-out: max. rel. act. PPARα
T2 construct: coding for the hinge region and LBD of the canonical isoform of the respective nuclear receptor; expressed in transfected cells; host or cells: HEK293T
T2 sequence (Q07869 239-466 limits assumed): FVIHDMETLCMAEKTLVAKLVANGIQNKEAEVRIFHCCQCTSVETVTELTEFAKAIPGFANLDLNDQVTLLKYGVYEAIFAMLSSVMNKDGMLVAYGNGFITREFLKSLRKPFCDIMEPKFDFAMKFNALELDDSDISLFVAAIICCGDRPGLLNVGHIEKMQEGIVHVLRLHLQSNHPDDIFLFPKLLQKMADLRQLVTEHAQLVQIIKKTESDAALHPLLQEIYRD

[3] = molecular target: T3, human PPARδ ligand-binding domain (Gal4 chimera) (Homo sapiens, UniProt Q03181); assay: Gal4 hybrid reporter gene assay, PPARδ; settings: for Emax: read-out: max. rel. act. PPARδ
T3 construct: coding for the hinge region and LBD of the canonical isoform of the respective nuclear receptor; expressed in transfected cells; host or cells: HEK293T
T3 sequence (Q03181 211-439 limits assumed): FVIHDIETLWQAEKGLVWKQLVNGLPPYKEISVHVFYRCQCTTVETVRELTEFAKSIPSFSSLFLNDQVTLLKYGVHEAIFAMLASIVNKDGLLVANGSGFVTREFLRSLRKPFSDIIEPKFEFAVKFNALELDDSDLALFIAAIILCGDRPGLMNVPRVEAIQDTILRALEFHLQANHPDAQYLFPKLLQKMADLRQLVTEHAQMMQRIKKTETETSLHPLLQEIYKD

[4] = molecular target: T4, human PPARγ ligand-binding domain (Gal4 chimera) (Homo sapiens, UniProt P37231); assay: Gal4 hybrid reporter gene assay, PPARγ; settings: for Emax: read-out: max. rel. act. PPARγ
T4 construct: coding for the hinge region and LBD of the canonical isoform of the respective nuclear receptor; expressed in transfected cells; host or cells: HEK293T
T4 sequence (P37231 238-503 limits assumed): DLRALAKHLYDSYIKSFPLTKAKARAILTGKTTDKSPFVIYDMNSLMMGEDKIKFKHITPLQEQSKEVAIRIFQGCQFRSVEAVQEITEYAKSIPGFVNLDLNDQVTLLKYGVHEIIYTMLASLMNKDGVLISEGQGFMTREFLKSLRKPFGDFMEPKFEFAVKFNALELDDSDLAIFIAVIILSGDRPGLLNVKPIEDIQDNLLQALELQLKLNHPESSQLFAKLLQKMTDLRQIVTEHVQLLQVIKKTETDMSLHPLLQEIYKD

[5] = HeLa, mean ± SEM, n = 3, read-out: EC50 [μM] FXR
[6] = EC50 [μM] PPARδ, HEK293T, mean ± SEM, n = 3

| Structure (SMILES) | EC50 [1, 5] [µM] | EC50 ([2]; HEK293T, mean ± SEM, n = 3) [µM] | Emax [2] [%] | EC50 [3, 6] [µM] | Emax [3] [%] | EC50 [4] [µM] | Emax [4] [%] | Emax ([1]; HeLa) [%] | EC50 [1] [µM] | EC50 ([3]; HEK293T, mean ± SEM, n = 3, read-out: EC50 [μM] PPARδ) [µM] | EC50 ([4]; HEK293T, mean ± SEM, n = 3, read-out: EC50 [μM] PPARγ) [µM] | EC50 [μM] FXR ([1]; HeLa, mean ± SEM, n = 3) | EC50 [μM] PPARα ([2]; HEK293T, mean ± SEM, n = 3) | EC50 [μM] PPARδ ([3]; HEK293T, mean ± SEM, n = 3) | EC50 [μM] PPARγ ([4]; HEK293T, mean ± SEM, n = 3) |
| --- | --- | --- | --- | --- | --- | --- | --- | --- | --- | --- | --- | --- | --- | --- | --- |
| Cc1cccc(C(=O)Nc2cccc(CCC(=O)O)c2)c1NC(=O)c1ccc2ccccc2c1 [compound 16] | > 10 | 6.2 ± 0.1 | 31 | 2.7 ± 0.3 | 30 | 7.1 ± 1.3 | 6 |  |  |  |  |  |  |  |  |
| Cc1ccc(C(=O)Nc2cccc(CCC(=O)O)c2)c(NC(=O)c2ccc3ccccc3c2)c1 [compound 17] | 1.5 ± 0.1 | 1.7 ± 0.2 | 67 | 0.17 ± 0.02 | 34 | 1.4 ± 0.3 | 21 | 21 |  |  |  |  |  |  |  |
| Cc1ccc(NC(=O)c2ccc3ccccc3c2)c(C(=O)Nc2cccc(CCC(=O)O)c2)c1 [compound 18] | > 10 | 0.8 ± 0.02 | 25 | 0.21 ± 0.01 | 14 | 3.3 ± 0.1 | 23 |  |  |  |  |  |  |  |  |
| Cc1cccc(NC(=O)c2ccc3ccccc3c2)c1C(=O)Nc1cccc(CCC(=O)O)c1 [compound 19] | > 10 | 7.4 ± 0.4 | 15 | 6.3 ± 0.9 | 20 | 11 ± 2 | 2.5 |  |  |  |  |  |  |  |  |
| O=C(O)CCc1cccc(NC(=O)c2ccc(Cl)cc2NC(=O)c2ccc3ccccc3c2)c1 [compound 20] | > 10 | 3 ± 0.1 | 16 | 1.9 ± 0.2 | 16 | 1.4 ± 0.1 | 6 |  |  |  |  |  |  |  |  |
| O=C(O)CCc1cccc(NC(=O)c2ccc(O)cc2NC(=O)c2ccc3ccccc3c2)c1 [compound 21] | 4.5 ± 0.1 | 5.3 ± 0.5 | 54 | 2.4 ± 0.1 | 34 | 2.3 ± 0.3 | 20 | 16 |  |  |  |  |  |  |  |
| COc1ccc(C(=O)Nc2cccc(CCC(=O)O)c2)c(NC(=O)c2ccc3ccccc3c2)c1 [compound 22] | 11 ± 3 | 0.3 ± 0.04 | 43 | 0.06 ± 0.01 | 32 | 1.3 ± 0.1 | 27 | 22 |  |  |  |  |  |  |  |
| O=C(O)CCc1cccc(NC(=O)c2ccc(OC(F)(F)F)cc2NC(=O)c2ccc3ccccc3c2)c1 [compound 23] |  | 1.1 ± 0.3 | 31 | 0.38 ± 0.06 | 30 | 1 ± 0.2 | 15 | 12 | 1.1 ± 0.1 |  |  |  |  |  |  |
| O=C(O)CCc1cccc(NC(=O)c2cc(Cl)ccc2NC(=O)c2ccc3ccccc3c2)c1 [compound 25] | 2.6 ± 0.4 | 0.9 ± 0.2 | 42 | 0.28 ± 0.03 | 17 | 6 ± 1 | 26 | 12 |  |  |  |  |  |  |  |
| O=C(O)CCc1cccc(NC(=O)c2cc(O)ccc2NC(=O)c2ccc3ccccc3c2)c1 [compound 26] | > 10 | 8.9 ± 0.8 | 28 | 10 ± 2 | 24 | 13 ± 1 | 9 |  |  |  |  |  |  |  |  |
| COc1ccc(NC(=O)c2ccc3ccccc3c2)c(C(=O)Nc2cccc(CCC(=O)O)c2)c1 [compound 27] | > 10 | 0.23 ± 0.04 | 53 | 0.36 ± 0.01 | 23 | 2 ± 0.1 | 15 |  |  |  |  |  |  |  |  |
| O=C(O)CCc1cccc(NC(=O)c2cc(OC(F)(F)F)ccc2NC(=O)c2ccc3ccccc3c2)c1 [compound 28] | > 10 | 0.21 ± 0.02 | 54 | 0.1 ± 0.01 | 19 | 1.1 ± 0.2 | 18 |  |  |  |  |  |  |  |  |
| O=C(O)CCc1cccc(NC(=O)c2cc3c(cc2NC(=O)c2ccc4ccccc4c2)OCO3)c1 [compound 29] | 2.9 ± 0.6 | 0.46 ± 0.03 | 25 | 0.4 ± 0.1 | 31 | 0.9 ± 0.3 | 15 | 14 |  |  |  |  |  |  |  |
| O=C(O)CCc1cccc(NC(=O)c2ccccc2NC(=O)c2ccc(-c3ccccc3)cc2)c1 [compound 30] | 1.3 ± 0.2 | > 30 |  |  | 38 |  | 16 ± 10 | 33 |  | 2.5 ± 0.5 | 1.6 ± 0.2 |  |  |  |  |
| O=C(O)CCc1cccc(NC(=O)c2ccccc2NC(=O)c2ccc(-c3ccco3)cc2)c1 [compound 31] | 5.4 ± 0.1 | 1.8 ± 0.3 | 22 | 0.2 ± 0.01 | 43 | 2.2 ± 0.1 | 9 | 23 |  |  |  |  |  |  |  |
| O=C(O)CCc1cccc(NC(=O)c2ccccc2NC(=O)c2ccc(-c3cccs3)cc2)c1 [compound 33] | 1.7 ± 0.4 | 1.5 ± 0.1 | 27 | 0.64 ± 0.06 | 35 | 1.4 ± 0.2 | 11 | 21 |  |  |  |  |  |  |  |
| O=C(O)CCc1cccc(NC(=O)c2ccccc2NC(=O)c2ccc(-c3ccsc3)cc2)c1 [compound 34] | 0.6 ± 0.1 | 1.7 ± 0.1 | 32 | 1.6 ± 0.3 | 59 | 1.3 ± 0.2 | 17 | 18 |  |  |  |  |  |  |  |
| O=C(O)CCc1cccc(NC(=O)c2ccccc2NC(=O)c2ccc(-c3ccon3)cc2)c1 [compound 35] | 6.8 ± 0.6 | 8 ± 0.4 | 11 | 5.6 ± 0.4 | 29 | 5.8 ± 0.8 | 30 | 32 |  |  |  |  |  |  |  |
| O=C(O)CCc1cccc(NC(=O)c2ccccc2NC(=O)c2ccc(-c3cnoc3)cc2)c1 [compound 36] |  |  |  |  |  |  |  |  |  |  |  | Unstable | Unstable | Unstable | Unstable |
| O=C(O)CCc1cccc(NC(=O)c2ccccc2NC(=O)c2ccc(-c3cocn3)cc2)c1 [compound 37] | 6.9 ± 0.3 | 20 ± 1 | 36 | 12 ± 1 | 52 | 6 ± 1 | 15 | 41 |  |  |  |  |  |  |  |
